From the supplement of paper PMC7287046

Tests used:
Details in all cases: exposure time: 72 h
SF539 [1] = assay: Loewe synergy score (Combenefit); higher = more synergy; extreme values may be limits of the assay
Summary of the method: (§1)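 Each drug's dilution series was topped at its own IC50. Pairs were combined on glioma cell lines as 6 × 6 twofold-dilution matrices in 96-well plates, dosed 24 h after plating, with a sixfold untreated control, and read three days later at least in triplicate. CellTiter-Glo viability, given as percent of DMSO controls, was normalised, and Combenefit then yielded Loewe, Bliss and highest single agent synergy scores.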

KNS-42 [2] = assay: as above
Summary of the method: as §1

SF268 [3] = assay: as above
Summary of the method: as §1

U87 [4] = assay: as above
Summary of the method: as §1

AM-38 [5] = assay: as above
Summary of the method: as §1

U251 [6] = assay: as above
Summary of the method: as §1

SNB75 [7] = assay: as above
Summary of the method: as §1

U118 [8] = assay: as above
Summary of the method: as §1

T98G [9] = assay: as above
Summary of the method: as §1

SF539 [10] = assay: HSA synergy score (Combenefit); higher = more synergy
Summary of the method: as §1

KNS-42 [11] = assay: as above
Summary of the method: as §1

SF268 [12] = assay: as above
Summary of the method: as §1

U87 [13] = assay: as above
Summary of the method: as §1

AM-38 [14] = assay: as above
Summary of the method: as §1

U251 [15] = assay: as above
Summary of the method: as §1

SNB75 [16] = assay: as above
Summary of the method: as §1

U118 [17] = assay: as above
Summary of the method: as §1

T98G [18] = assay: as above
Summary of the method: as §1

SF539 [19] = assay: Bliss synergy score (Combenefit); higher = more synergy; extreme values may be limits of the assay
Summary of the method: as §1

KNS-42 [20] = assay: as above
Summary of the method: as §1

SF268 [21] = assay: as above
Summary of the method: as §1

U87 [22] = assay: as above
Summary of the method: as §1

AM-38 [23] = assay: as above
Summary of the method: as §1

U251 [24] = assay: as above
Summary of the method: as §1

SNB75 [25] = assay: as above
Summary of the method: as §1

U118 [26] = assay: as above
Summary of the method: as §1

T98G [27] = assay: as above
Summary of the method: as §1

T98 = assay: Chou-Talalay combination index (dimensionless); higher = less synergy (more antagonism)
Summary of the method: (§2)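 Two drugs were combined in a 6 × 6 grid of twofold dilutions on glioma cells plated 24 h earlier in 96-well plates, with low-adhesion plates for primary cultures. Each dilution series was capped at the drug's single-drug IC50. After three days, CellTiter-Glo readings were taken at least in triplicate. The Chou–Talalay combination index was calculated by the median effect principle from single and combined viabilities, given as percent of DMSO controls.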

SF539 [28] = assay: as above
Summary of the method: as §2

SF268 [29] = assay: as above
Summary of the method: as §2

KNS42 = assay: as above
Summary of the method: as §2

U87 [30] = assay: as above
Summary of the method: as §2

U251 [31] = assay: as above
Summary of the method: as §2

SNB75 [32] = assay: as above
Summary of the method: as §2

AM38 = assay: as above
Summary of the method: as §2

U118 [33] = assay: as above
Summary of the method: as §2

| Structure (SMILES) | Loewe synergy score (SF539 [1]) | Loewe synergy score (KNS-42 [2]) | Loewe synergy score (SF268 [3]) | Loewe synergy score (U87 [4]) | Loewe synergy score (AM-38 [5]) | Loewe synergy score (U251 [6]) | Loewe synergy score (SNB75 [7]) | Loewe synergy score (U118 [8]) | Loewe synergy score (T98G [9]) | HSA synergy score (SF539 [10]) | HSA synergy score (KNS-42 [11]) | HSA synergy score (SF268 [12]) | HSA synergy score (U87 [13]) | HSA synergy score (AM-38 [14]) | HSA synergy score (U251 [15]) | HSA synergy score (SNB75 [16]) | HSA synergy score (U118 [17]) | HSA synergy score (T98G [18]) | Bliss synergy score (SF539 [19]) | Bliss synergy score (KNS-42 [20]) | Bliss synergy score (SF268 [21]) | Bliss synergy score (U87 [22]) | Bliss synergy score (AM-38 [23]) | Bliss synergy score (U251 [24]) | Bliss synergy score (SNB75 [25]) | Bliss synergy score (U118 [26]) | Bliss synergy score (T98G [27]) | Chou-Talalay combination index (T98) | Chou-Talalay combination index (SF539 [28]) | Chou-Talalay combination index (SF268 [29]) | Chou-Talalay combination index (KNS42) | Chou-Talalay combination index (U87 [30]) | Chou-Talalay combination index (U251 [31]) | Chou-Talalay combination index (SNB75 [32]) | Chou-Talalay combination index (AM38) | Chou-Talalay combination index (U118 [33]) |
| --- | --- | --- | --- | --- | --- | --- | --- | --- | --- | --- | --- | --- | --- | --- | --- | --- | --- | --- | --- | --- | --- | --- | --- | --- | --- | --- | --- | --- | --- | --- | --- | --- | --- | --- | --- | --- |
| CO[C@H]1C[C@@H]2CC[C@@H](C)[C@@](O)(O2)C(=O)C(=O)N2CCCC[C@H]2C(=O)O[C@H]([C@H](C)C[C@@H]2CC[C@@H](O)[C@H](OC)C2)CC(=O)[C@H](C)/C=C(\C)[C@@H](O)[C@@H](OC)C(=O)[C@H](C)C[C@H](C)/C=C/C=C/C=C/1C [Rapamycin] + C[C@@H](Oc1cc(-c2cnn(C3CCNCC3)c2)cnc1N)c1c(Cl)ccc(F)c1Cl [Crizotinib] | 3.24 | 18.6 | 8.2 | 16.4 | 0 | 26 | 9.67 | 5.03 | 0 | 3.78 | 19.5 | 8.72 | 19.4 | 0.00484 | 26.2 | 10.4 | 5.07 | 0 | 0 | 3.73 | 0.0254 | 11.2 | 0 | 5.62 | 0.128 | 0 | 0 | 1.1 | 0.968 | 0.928 | 0.807 | 0.683 | 0.715 | 0.943 | 1.07 | 1 |
| C[C@@H](Oc1cc(-c2cnn(C3CCNCC3)c2)cnc1N)c1c(Cl)ccc(F)c1Cl [Crizotinib] + C=CCc1cccc(/C=N/NC(=O)CN2CCN(Cc3ccccc3)CC2)c1O [PAC-1] | 0.62 | 15.3 | 0.692 | 4.47 | 0.141 | 1.22 | 0.297 | 0.609 | 2.4 | 3.88 | 16.5 | 1.21 | 4.47 | 0.987 | 1.43 | 5.78 | 2.29 | 2.4 | 1.39 | 7.19 | 0 | 4.47 | 0.773 | 0.0857 | 0.417 | 0.539 | 2.4 | 0.476 | 0.877 | 1.04 | 0.421 | 0.154 | 0.821 | 0.951 | 0.937 | 0.584 |
| C=CCc1cccc(/C=N/NC(=O)CN2CCN(Cc3ccccc3)CC2)c1O [PAC-1] + CCOc1nc(NC(=O)Cc2cc(OC)ccc2OC)cc(N)c1C#N [JNK inhibitor VIII] | 2.49 | 7.1 | 0.606 | 4.97 | 0.484 | 0.13 | 5.04 | 2.38 | 1.34 | 7.4 | 11.2 | 5.39 | 5.02 | 3.74 | 3.65 | 6.97 | 2.56 | 3.49 | 3.99 | 0 | 1.09 | 0.501 | 0 | 2.01 | 0.0865 | 0.51 | 0 | 0.982 | 0.58 | 0.951 | 0.944 | 0.794 | 0.85 | 0.91 | 0.965 | 0.622 |
